From ChEMBL document CHEMBL5465560, “Selectivity Literature for EUbOPEN Chemogenomic Library” (2024)

Experiments:
[1] = biological target: Cyclin-dependent kinase 18 (Homo sapiens) (UniProt Q07002); test: Selectivity interaction (KinomeScan (DiscoverX)) EUB0000229b CDK18; settings: at 10 µM
[2] = biological target: T1, Dual specificity mitogen-activated protein kinase kinase 6 (Homo sapiens) (UniProt P52564); test: Selectivity interaction (KinomeScan (DiscoverX)) EUB0000595a MAP2K6; settings: at 10 µM
T1 sequence (whole entry): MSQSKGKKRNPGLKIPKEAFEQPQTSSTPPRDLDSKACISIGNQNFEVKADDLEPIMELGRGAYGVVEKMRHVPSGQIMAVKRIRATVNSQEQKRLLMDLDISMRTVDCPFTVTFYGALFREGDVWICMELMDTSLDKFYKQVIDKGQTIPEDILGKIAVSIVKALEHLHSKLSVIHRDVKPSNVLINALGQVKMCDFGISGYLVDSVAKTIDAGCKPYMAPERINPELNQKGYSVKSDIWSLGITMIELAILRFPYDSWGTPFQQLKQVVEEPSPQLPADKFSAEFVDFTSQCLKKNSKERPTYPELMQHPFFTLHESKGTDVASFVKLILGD

[3] = biological target: Mitogen-activated protein kinase 1 (Homo sapiens, UniProt P28482); test: Selectivity interaction (Rxn Biology Kinase assay) EUB0001632a MAPK1; settings: at 10 µM
Chain of Mitogen-activated protein kinase 1 (P28482 whole entry): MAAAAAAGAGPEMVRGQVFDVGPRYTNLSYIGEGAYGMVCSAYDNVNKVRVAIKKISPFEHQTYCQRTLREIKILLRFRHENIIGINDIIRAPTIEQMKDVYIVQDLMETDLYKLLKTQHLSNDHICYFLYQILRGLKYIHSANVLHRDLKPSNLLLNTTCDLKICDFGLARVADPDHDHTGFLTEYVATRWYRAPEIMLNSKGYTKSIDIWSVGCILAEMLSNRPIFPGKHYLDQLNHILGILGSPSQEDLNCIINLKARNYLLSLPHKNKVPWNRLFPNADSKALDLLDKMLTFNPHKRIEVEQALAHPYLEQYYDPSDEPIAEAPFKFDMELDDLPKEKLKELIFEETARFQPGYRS

[4] = biological target: Mitogen-activated protein kinase kinase kinase 8 (Homo sapiens, UniProt P41279); test: Selectivity interaction (SelectScreen profiling (Invitrogen)) EUB0000607a MAP3K8; settings: at 2 µM
Chain of Mitogen-activated protein kinase kinase kinase 8 (P41279 whole entry): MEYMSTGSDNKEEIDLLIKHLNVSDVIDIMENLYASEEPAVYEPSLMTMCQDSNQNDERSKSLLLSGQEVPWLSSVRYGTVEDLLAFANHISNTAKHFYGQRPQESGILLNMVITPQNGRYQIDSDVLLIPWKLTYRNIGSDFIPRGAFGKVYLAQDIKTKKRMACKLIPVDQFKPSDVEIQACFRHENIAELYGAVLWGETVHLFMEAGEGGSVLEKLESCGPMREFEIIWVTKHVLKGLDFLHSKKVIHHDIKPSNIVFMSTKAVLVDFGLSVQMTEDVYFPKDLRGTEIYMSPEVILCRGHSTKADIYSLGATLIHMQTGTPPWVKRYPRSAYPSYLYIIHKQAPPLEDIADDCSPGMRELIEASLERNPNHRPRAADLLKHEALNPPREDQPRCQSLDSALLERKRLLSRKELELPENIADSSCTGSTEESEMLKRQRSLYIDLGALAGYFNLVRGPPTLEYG

[5] = biological target: Mitogen-activated protein kinase kinase kinase kinase 1 (Homo sapiens) (UniProt Q92918); test: Selectivity interaction (KinomeScan (DiscoverX)) EUB0000618a MAP4K1; settings: at 10 µM
Chain of Mitogen-activated protein kinase kinase kinase kinase 1 (Homo sapiens) (Q92918 whole entry, looked up): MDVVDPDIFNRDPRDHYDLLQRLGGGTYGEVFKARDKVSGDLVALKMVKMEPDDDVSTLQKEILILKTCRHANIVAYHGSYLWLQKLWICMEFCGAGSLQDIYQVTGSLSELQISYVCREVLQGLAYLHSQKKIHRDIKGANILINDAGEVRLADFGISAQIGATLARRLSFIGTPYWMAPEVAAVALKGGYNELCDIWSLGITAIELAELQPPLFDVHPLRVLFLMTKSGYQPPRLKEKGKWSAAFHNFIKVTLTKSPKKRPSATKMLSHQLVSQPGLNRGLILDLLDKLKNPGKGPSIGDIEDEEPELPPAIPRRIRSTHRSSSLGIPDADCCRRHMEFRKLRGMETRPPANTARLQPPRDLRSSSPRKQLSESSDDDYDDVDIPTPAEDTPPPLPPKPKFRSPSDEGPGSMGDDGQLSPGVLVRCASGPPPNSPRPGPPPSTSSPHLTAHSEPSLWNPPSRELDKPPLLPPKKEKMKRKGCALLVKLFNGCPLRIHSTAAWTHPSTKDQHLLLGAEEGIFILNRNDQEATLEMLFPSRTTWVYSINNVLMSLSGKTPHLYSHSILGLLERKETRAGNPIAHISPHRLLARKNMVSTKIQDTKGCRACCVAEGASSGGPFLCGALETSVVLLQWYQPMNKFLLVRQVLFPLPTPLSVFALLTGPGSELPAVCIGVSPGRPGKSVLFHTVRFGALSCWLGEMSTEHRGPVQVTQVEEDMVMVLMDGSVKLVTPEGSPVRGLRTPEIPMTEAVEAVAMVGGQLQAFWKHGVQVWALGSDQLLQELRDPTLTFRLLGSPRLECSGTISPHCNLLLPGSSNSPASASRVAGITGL

[6] = biological target: T2, Serine/threonine-protein kinase LATS1 (Homo sapiens) (UniProt O95835); test: Selectivity interaction (ActivX KiNativ screen (kinase selectivity in THP-1 cell lysates)) EUB0000639a LATS1; type: subcellular; settings: lysate, at 0.2 µM
T2 sequence (whole entry): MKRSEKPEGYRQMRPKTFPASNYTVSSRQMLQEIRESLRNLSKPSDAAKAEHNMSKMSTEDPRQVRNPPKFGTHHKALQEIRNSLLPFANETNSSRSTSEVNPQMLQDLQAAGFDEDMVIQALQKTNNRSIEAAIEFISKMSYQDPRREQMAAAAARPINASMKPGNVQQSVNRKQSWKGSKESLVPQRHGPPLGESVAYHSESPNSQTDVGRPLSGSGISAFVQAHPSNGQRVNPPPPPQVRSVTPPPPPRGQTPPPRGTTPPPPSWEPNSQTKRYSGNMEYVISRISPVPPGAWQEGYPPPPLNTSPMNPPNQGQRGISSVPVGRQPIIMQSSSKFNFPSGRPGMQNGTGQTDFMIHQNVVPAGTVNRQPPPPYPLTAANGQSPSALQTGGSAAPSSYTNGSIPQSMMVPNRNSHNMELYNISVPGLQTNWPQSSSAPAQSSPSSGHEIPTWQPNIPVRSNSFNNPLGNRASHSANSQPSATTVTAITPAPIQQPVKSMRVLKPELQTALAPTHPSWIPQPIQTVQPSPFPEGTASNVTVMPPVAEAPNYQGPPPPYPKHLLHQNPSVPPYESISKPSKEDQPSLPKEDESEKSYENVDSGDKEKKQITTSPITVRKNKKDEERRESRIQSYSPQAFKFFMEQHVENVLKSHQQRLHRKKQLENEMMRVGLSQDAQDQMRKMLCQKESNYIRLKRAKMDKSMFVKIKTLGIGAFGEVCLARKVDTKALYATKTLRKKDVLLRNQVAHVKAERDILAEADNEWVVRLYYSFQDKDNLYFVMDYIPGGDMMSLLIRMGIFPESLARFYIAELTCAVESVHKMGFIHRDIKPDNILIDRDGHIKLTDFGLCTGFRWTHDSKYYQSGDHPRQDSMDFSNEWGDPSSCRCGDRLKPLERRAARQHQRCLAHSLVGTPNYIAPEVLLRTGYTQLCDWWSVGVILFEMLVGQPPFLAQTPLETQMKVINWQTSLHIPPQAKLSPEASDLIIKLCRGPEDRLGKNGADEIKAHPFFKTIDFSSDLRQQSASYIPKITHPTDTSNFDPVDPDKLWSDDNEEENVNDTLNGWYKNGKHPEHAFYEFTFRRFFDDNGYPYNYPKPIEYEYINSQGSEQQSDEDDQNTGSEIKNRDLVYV

[7] = biological target: Tyrosine-protein kinase Yes (Homo sapiens) (UniProt P07947); settings: at 10 µM
Chain of Tyrosine-protein kinase Yes (Homo sapiens) (P07947 2-543 limits assumed): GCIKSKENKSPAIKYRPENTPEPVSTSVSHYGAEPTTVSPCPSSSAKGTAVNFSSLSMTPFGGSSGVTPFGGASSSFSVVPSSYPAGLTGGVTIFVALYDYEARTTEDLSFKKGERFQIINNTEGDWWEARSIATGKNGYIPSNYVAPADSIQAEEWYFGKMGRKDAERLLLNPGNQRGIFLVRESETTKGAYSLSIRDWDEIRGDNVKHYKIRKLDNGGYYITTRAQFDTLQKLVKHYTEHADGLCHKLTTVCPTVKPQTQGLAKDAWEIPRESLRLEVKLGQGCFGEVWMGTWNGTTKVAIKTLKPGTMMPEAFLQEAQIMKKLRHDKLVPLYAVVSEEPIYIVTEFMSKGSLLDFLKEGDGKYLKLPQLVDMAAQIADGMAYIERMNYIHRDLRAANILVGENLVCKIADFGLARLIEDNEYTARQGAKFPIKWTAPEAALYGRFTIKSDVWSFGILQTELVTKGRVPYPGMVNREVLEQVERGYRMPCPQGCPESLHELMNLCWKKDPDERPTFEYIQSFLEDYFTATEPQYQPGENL

[8] = biological target: Receptor tyrosine-protein kinase erbB-4 (Homo sapiens, UniProt Q15303); test: Selectivity interaction (KinomeScan (DiscoverX)) EUB0000092b ERBB4; settings: at 10 µM
Chain of Receptor tyrosine-protein kinase erbB-4 (Q15303 whole entry): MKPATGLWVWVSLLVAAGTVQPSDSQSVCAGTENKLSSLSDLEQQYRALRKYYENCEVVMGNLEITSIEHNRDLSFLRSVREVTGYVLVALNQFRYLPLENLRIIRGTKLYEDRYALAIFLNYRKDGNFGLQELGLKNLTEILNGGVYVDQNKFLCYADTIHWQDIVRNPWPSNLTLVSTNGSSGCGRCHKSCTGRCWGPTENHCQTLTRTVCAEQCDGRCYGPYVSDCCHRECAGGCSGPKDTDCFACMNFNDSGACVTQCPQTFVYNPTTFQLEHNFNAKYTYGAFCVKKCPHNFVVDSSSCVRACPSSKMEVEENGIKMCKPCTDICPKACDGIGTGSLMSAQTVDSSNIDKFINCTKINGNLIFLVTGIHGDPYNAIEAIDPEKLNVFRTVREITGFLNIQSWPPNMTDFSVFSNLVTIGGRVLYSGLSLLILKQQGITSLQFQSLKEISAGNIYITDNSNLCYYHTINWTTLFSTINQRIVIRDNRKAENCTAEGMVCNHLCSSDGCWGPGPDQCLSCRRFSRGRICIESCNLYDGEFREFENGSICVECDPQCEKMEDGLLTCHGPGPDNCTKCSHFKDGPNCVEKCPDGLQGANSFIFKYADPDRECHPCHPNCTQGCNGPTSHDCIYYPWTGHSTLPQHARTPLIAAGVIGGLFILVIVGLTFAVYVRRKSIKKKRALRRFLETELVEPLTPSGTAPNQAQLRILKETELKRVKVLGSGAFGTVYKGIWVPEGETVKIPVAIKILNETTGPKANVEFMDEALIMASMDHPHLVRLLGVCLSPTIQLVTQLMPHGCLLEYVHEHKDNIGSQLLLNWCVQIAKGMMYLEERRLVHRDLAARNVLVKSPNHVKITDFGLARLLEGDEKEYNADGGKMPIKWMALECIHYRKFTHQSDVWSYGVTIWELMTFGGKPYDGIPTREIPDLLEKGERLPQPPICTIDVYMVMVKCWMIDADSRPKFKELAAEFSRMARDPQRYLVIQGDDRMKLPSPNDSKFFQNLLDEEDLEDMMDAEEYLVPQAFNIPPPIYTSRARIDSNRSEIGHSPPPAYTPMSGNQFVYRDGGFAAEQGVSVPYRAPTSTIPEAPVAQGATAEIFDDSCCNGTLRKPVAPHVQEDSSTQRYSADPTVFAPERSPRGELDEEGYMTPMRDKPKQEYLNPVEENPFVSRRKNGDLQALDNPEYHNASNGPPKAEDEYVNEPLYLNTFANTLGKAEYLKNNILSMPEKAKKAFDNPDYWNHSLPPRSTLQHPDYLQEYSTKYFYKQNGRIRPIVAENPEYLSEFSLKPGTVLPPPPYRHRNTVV

Chain of Cyclin-dependent kinase 18 (Homo sapiens) (Q07002 whole entry): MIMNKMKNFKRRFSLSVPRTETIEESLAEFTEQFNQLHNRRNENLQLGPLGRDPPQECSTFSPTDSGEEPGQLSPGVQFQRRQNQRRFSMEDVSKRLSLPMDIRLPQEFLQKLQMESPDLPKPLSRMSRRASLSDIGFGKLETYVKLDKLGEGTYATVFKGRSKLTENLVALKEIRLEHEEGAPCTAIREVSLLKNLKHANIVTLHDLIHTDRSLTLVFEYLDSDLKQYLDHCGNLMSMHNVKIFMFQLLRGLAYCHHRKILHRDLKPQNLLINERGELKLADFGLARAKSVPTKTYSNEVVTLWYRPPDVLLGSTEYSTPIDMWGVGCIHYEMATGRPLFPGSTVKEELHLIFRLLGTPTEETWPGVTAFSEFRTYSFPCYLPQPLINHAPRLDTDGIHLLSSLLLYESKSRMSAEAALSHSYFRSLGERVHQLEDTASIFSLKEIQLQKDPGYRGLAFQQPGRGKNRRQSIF

COc1cc(N(C)c2ccnc3ccc(C(F)(F)F)cc23)cc(OC)c1OC
% binding [1]: 91%

COCC(=O)NC/C=C/c1ccc2ncnc(Nc3ccc(Oc4ccc(C)nc4)c(C)c3)c2c1 [CP-724714]
% of control [2]: 93%

Cn1cc(-n2cnc3c(NCc4nc5cc(Cl)c(Cl)cc5[nH]4)nc(N4CCOCC4)nc32)cn1
% of inhibition [3]: 5.79%

CNC(=O)Nc1ccc(-c2nc(N3CC4CCC(C3)O4)c3cnn(C4CCC5(CC4)OCCO5)c3n2)cc1
% of inhibition [4]: 1%

O[C@H]1CC[C@H](Nc2ncc3nc(Nc4c(F)cc(F)cc4F)n([C@H]4CCOC4)c3n2)CC1
% of control [5]: 83%

CC[C@@H]1[C@H](F)C(=O)N[C@@H]1COc1nccc2cc(C(N)=O)c(OC)cc12 [ZIMLOVISERTIB]
% of inhibition [6]: -82.2%

CCN(CC)CCCCNc1ncc2cc(-c3cc(OC)cc(OC)c3)c(NC(=O)NC(C)(C)C)nc2n1
% of control [7]: 100%

CCC(=O)N1CCN(c2ccc(-n3c(=O)ccc4cnc5ccc(-c6cnc7ccccc7c6)cc5c43)cc2C(F)(F)F)CC1
% of control [8]: 100%
